Data from patent US10167262B2, “Herbicidal substituted 3-arylpyrazoles” (FMC CORPORATION, priority 2014, dated 2019).

What was measured:
Assay type in all cases: in vivo
soybean (Glycine max) = test: Test C pre-/postemergence greenhouse test, plant response rating 0-100; conditions: Postemergence; for Plant response rating, Soybean: scale 0 to 100
Outline: (§1)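 Visual 0–100 control scores, taken 13 to 15 days post-application in a greenhouse, reflect treatment preemergence (seed in loam soil with sand) or postemergence (2–18 cm plants in peat moss, vermiculite medium). A dash marks no result.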

[1] = test system: Italian ryegrass (Lolium multiflorum); test: as above; conditions: Postemergence; for Plant response rating, Ryegrass, Italian: scale 0 to 100
Outline: as §1

[2] = test system: giant foxtail (Setaria faberii); test: as above; conditions: Postemergence; for Plant response rating, Foxtail, Giant: scale 0 to 100
Outline: as §1

wild oat (Avena fatua) = test: Test C postemergence greenhouse test, plant response rating 0-100; conditions: for Plant response rating, Oat, Wild: scale 0 to 100
Outline: (§2)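 Potted in peat/vermiculite mix; postemergence application at 1–4 leaves (2–18 cm); greenhouse 13–15 d; visual score 0–100 relative to untreated plants; dash = no test result.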

kochia (Kochia scoparia) = test: as above; conditions: for Plant response rating, Kochia: scale 0 to 100
Outline: as §2

[3] = test system: chickweed (common chickweed, Stellaria media); test: as above; conditions: for Plant response rating, Chickweed: scale 0 to 100
Outline: as §2

[4] = test system: large (Lg) crabgrass (Digitaria sanguinalis); test: Test A pre-/postemergence greenhouse herbicide test, visual injury rating 0-100; conditions: 1000 g ai/ha
Outline: (§3)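 Visual injury versus untreated controls, scored about 10 days after treatment on a 0 to 100 scale (0 = no effect, 100 = complete control). Applications were preemergence directed soil spray plus postemergence spray at one- to two-leaf stage, 2 to 10 cm plants.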

[5] = test system: velvetleaf (Abutilon theophrasti); test: as above; conditions: 1000 g ai/ha
Outline: as §3

[6] = test system: wheat (Triticum aestivum); test: as above; conditions: 1000 g ai/ha
Outline: as §3

[7] = test system: giant foxtail (Setaria faberii); test: as above; conditions: 1000 g ai/ha
Outline: as §3

[8] = test system: pigweed (Amaranthus retroflexus); test: as above; conditions: 1000 g ai/ha
Outline: as §3

[9] = test system: morningglory (Ipomoea spp.); test: as above; conditions: 1000 g ai/ha
Outline: as §3

[10] = test system: barnyardgrass (Echinochloa crus-galli); test: as above; conditions: 1000 g ai/ha
Outline: as §3

corn (Zea mays) = test: as above; conditions: 1000 g ai/ha
Outline: as §3

SMILES | Plant response rating (0 to 100), Soybean (soybean (Glycine max); 62 g ai/ha) | Plant response rating (0 to 100), Soybean (soybean (Glycine max); 125 g ai/ha) | Plant response rating, Soybean (soybean (Glycine max); 250 g ai/ha) | Plant response rating (0 to 100), Ryegrass, Italian ([1]; 62 g ai/ha) | Plant response rating (0 to 100), Ryegrass, Italian ([1]; 125 g ai/ha) | Plant response rating, Ryegrass, Italian ([1]; 250 g ai/ha) | Plant response rating (0 to 100), Foxtail, Giant ([2]; 62 g ai/ha) | Plant response rating (0 to 100), Foxtail, Giant ([2]; 125 g ai/ha) | Plant response rating, Foxtail, Giant ([2]; 250 g ai/ha) | Plant response rating (0 to 100), Oat, Wild (wild oat (Avena fatua); 62 g ai/ha) | Plant response rating (0 to 100), Oat, Wild (wild oat (Avena fatua); 125 g ai/ha) | Plant response rating, Oat, Wild (wild oat (Avena fatua); 250 g ai/ha) | Plant response rating (0 to 100), Kochia (kochia (Kochia scoparia); 62 g ai/ha) | Plant response rating (0 to 100), Kochia (kochia (Kochia scoparia); 125 g ai/ha) | Plant response rating, Kochia (kochia (Kochia scoparia); 250 g ai/ha) | Plant response rating (0 to 100), Chickweed ([3]; 62 g ai/ha) | Plant response rating (0 to 100), Chickweed ([3]; 125 g ai/ha) | Plant response rating, Chickweed ([3]; 250 g ai/ha) | Plant response rating (0 to 100 scale), Crabgrass, Large ([4]; Postemergence) | Plant response rating (0 to 100 scale), Crabgrass, Large ([4]; Preemergence) | also measured
ON=C(c1ccccc1)c1c[nH]nc1-c1cc(Cl)cc(Cl)c1 [Compound 50] | 0 | 0 | 0 | 0 | 0 | 0 | 0 | 0 | 0 | 0 | 0 | 0 | 60 | 65 | 65 | 95 | 100 | 100 | 0 | 0 | Plant response rating (0 to 100), Foxtail, Giant ([2]; 31 g ai/ha): 0; Plant response rating (0 to 100), Chickweed ([3]; 31 g ai/ha): 95; Plant response rating (0 to 100 scale), Velvetleaf ([5]; Postemergence): 100; Plant response rating (0 to 100 scale), Velvetleaf ([5]; Preemergence): 90; Plant response rating (0 to 100 scale), Wheat ([6]; Postemergence): 0; Plant response rating (0 to 100 scale), Wheat ([6]; Preemergence): 0; Plant response rating (0 to 100 scale), Foxtail, Giant ([7]; Postemergence): 10; Plant response rating (0 to 100 scale), Foxtail, Giant ([7]; Preemergence): 0; Plant response rating (0 to 100 scale), Pigweed ([8]; Postemergence): 90; Plant response rating (0 to 100 scale), Pigweed ([8]; Preemergence): 100; Plant response rating (0 to 100 scale), Morningglory ([9]; Postemergence): 0; Plant response rating (0 to 100 scale), Morningglory ([9]; Preemergence): 0; Plant response rating (0 to 100 scale), Barnyardgrass ([10]; Postemergence): 0; Plant response rating (0 to 100 scale), Barnyardgrass ([10]; Preemergence): 0; Plant response rating (0 to 100 scale), Corn (corn (Zea mays); Postemergence): 0; Plant response rating (0 to 100 scale), Corn (corn (Zea mays); Preemergence): 0
Cn1cc(C(=O)c2ccccc2)c(-c2cc(Br)cc(Br)c2)n1 [Compound 53] | 0 | 0 | 0 | 0 | 0 | 0 | 0 | 0 | 10 | 0 | 0 | 0 | 25 | 45 | 60 | 50 | 50 | 100 | 0 | 0 | Plant response rating, Soybean (soybean (Glycine max); 500 g ai/ha): 5; Plant response rating, Ryegrass, Italian ([1]; 500 g ai/ha): 0; Plant response rating, Foxtail, Giant ([2]; 500 g ai/ha): 10; Plant response rating, Oat, Wild (wild oat (Avena fatua); 500 g ai/ha): 0; Plant response rating, Kochia (kochia (Kochia scoparia); 500 g ai/ha): 60; Plant response rating, Chickweed ([3]; 500 g ai/ha): 100; Plant response rating (0 to 100 scale), Velvetleaf ([5]; Postemergence): 90; Plant response rating (0 to 100 scale), Velvetleaf ([5]; Preemergence): 60; Plant response rating (0 to 100 scale), Wheat ([6]; Postemergence): 0; Plant response rating (0 to 100 scale), Wheat ([6]; Preemergence): 0; Plant response rating (0 to 100 scale), Foxtail, Giant ([7]; Postemergence): 0; Plant response rating (0 to 100 scale), Foxtail, Giant ([7]; Preemergence): 0; Plant response rating (0 to 100 scale), Pigweed ([8]; Postemergence): 100; Plant response rating (0 to 100 scale), Pigweed ([8]; Preemergence): 90; Plant response rating (0 to 100 scale), Morningglory ([9]; Postemergence): 0; Plant response rating (0 to 100 scale), Morningglory ([9]; Preemergence): 0; Plant response rating (0 to 100 scale), Barnyardgrass ([10]; Postemergence): 0; Plant response rating (0 to 100 scale), Barnyardgrass ([10]; Preemergence): 0; Plant response rating (0 to 100 scale), Corn (corn (Zea mays); Postemergence): 0; Plant response rating (0 to 100 scale), Corn (corn (Zea mays); Preemergence): 0
